Tests used:
Spanishneedles = experiment: Test D Spanishneedles; format: in vivo, Bidens bipinnata; settings: Postemergence, 0 to 100 scale
Green foxtail = experiment: Test D green foxtail; format: in vivo; settings: Postemergence, 0 to 100 scale, 0 no injury, 100 complete control

`CC(C)N(C(=O)n1oc(=O)n(C(C)C)c1=O)c1ccc(F)cc1` [Compound 131] was tested, and the “Plant response rating, Spanishneedles” value (Spanishneedles; Rate 16 g/ha, 0 no injury, 100 complete control) was 0, the “Plant response rating, Spanishneedles” value (Spanishneedles; Rate 32 g/ha, 0 no injury, 100 complete control) was 0 and the “Spanishneedles plant response rating” value (Spanishneedles; Rate 64 g/ha, 0 no injury, 100 complete control) was 0. The “Spanishneedles plant response rating” value (Spanishneedles; Rate 125 g/ha, 0 no injury, 100 complete control) was 70, the “Plant response rating, Spanishneedles” value (Spanishneedles; Rate 250 g/ha) was 60 and the “Plant response rating, Green foxtail” value (Green foxtail; Rate 64 g/ha) was 100. For the same compound, the “Plant response rating, Green foxtail” value (Green foxtail; Rate 125 g/ha) was 100.
